Experimental data reported in patent publication US11161819B2, “Substituted tetrahydroisoquinoline compounds useful as GPR120 agonists” (Merck Sharp & Dohme Corp., priority 2016, dated 2021).

Biological target: T1, human GPR120 (Homo sapiens, UniProt Q5NUL3)
T1 construct: expressed in transfected cells
T1 sequence (Q5NUL3 1-361): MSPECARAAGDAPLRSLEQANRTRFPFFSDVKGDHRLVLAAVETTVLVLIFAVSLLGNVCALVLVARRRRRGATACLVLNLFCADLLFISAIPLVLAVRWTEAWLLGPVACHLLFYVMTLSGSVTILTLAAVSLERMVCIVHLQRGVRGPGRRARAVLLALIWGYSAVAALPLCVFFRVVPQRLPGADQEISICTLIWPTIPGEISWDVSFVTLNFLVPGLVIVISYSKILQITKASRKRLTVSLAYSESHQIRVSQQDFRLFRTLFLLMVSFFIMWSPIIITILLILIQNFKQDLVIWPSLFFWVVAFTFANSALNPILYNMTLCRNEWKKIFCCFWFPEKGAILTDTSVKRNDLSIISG
Test: Human GPR120 IP1 Assay (inositol phosphate turnover, CisBio IP-One kit)
Format: cell-based
Conditions: IP1 accumulation in CHO-K1 cells stably expressing the short form of human GPR120; 60 min compound incubation; 4-parameter fit; read-out: hGPR120 EC50
From the text: Human GPR120 IP1 Assay Principle
The binding of small molecule agonists to the G-protein-coupled receptor GPR120 activates phospholipase C, and leads to the generation of inositol 1,4,5-trisphosphate (InsP3 or IP3). IP3 is subsequently de-phosphorylated to IP1, which accumulates in cells and is stable in the presence of lithium chloride.
In the present method, agonist-induced activation of the human GPR120 receptor was monitored by measuring the accumulation of IP1 in CHO-K1 cells that were stably expressing the short form of human GPR120 (Accession #NM_001195755). Following agonist addition, GPR120 activation and subsequent accumulation of IP1 was measured using a homogeneous Time Resolved Fluorescence-based ELISA commercially available from CisBio (IP-one ELISA Kit). The IP-One ELISA was a competitive immunoassay which uses IP1 labeled with […] and a terbium cryptate-labeled anti-IP1 monoclonal antibody. […] The signal loss was then back calculated to IP1 concentration using an IP1 standard curve. Determination of IP1 concentration was a direct measure of GPR120 activation and was used to determine compound potency (EC50).
Generation of GPR120-Expressing Cells:
Human GPR120 stable cell-lines were generated in CHO cells. The expression plasmids were transfected using lipofectamine (Life Technologies) following manufacturer's instructions. Stable cell-lines were generated following drug selection and single cell cloning.
Inositol Phosphate Turnover (IP1) Assay:
The assay was performed in 384-well format. CHO cells stably expressing human GPR120 were plated at […] per well in growth medium (DMEM/F12, 10% fetal calf serum). Cell plates were then incubated 16 hours at 37 degrees in a 5% CO2 incubator. Measurement of Inositol Phosphate Turnover (IP1) was performed using the CisBio IP-One kit (Part number 62IPAPEB). After the 16 hour incubation, the growth media was removed by centrifugation using the BlueWasher (AusWasher GUI Ver. v1.0.1.8) Protocol #21-“Light Dry” and 10 ul of stimulation buffer (prepared as described in the kit) was added to each well. In a separate plate, compounds were diluted in DMSO (200-fold over the final concentration in the assay well) and 50 nl was acoustically transferred to the appropriate well in the assay cell plate. The plates were then incubated for 60 minutes at 37 degrees in a 5% CO2 incubator. 10 ul of detection buffer (also prepared as described in the IP-One kit) was added to each well and the plates were incubated at room temperature for 60 minutes in the dark. The plates were then read in a Perkin Elmer EnVision or equivalent reader able to measure FRET. Fluorescent ratio of emission at 665 and 620 nm was then converted to the IP1 concentration by back calculating from an IP1 standard curve prepared at the time of the assay. The data was normalized to % activity using a reference compound, and the EC50 values were determined using a standard 4-parameter fit.

Row | Compound | EC50
1 | CO[C@H]1C[C@H](Oc2cc(C#N)c(F)c(N3CCc4cc([C@@H]5C[C@H]5C(=O)O)ccc4C3)c2)C1 [Example 89, (1R,2R)-2-(2-{3-cyano-2-fluoro-5-[(trans-3-methoxycyclobutyl)oxy]phenyl}-1,2,3,4-tetrahydro-isoquinolin-6-yl)cyclopropane-carboxylic acid] | 185 nM
2 | COc1cc(OC(F)(F)F)cc(N2CCc3cc(CCC(=O)O)ccc3C2)c1F [Example 13, 3-{2-[2-fluoro-3-methoxy-5-(trifluoromethoxy)phenyl]-1,2,3,4-tetrahydroisoquinolin-6-yl}-propanoic acid] | 18 nM
3 | O=C(O)CCc1ccc2c(c1F)CCN(c1cc(OC3CCC3)ccc1F)C2 [Example 81, 3-{2-[5-(cyclobutyloxy)-2-fluoro-phenyl]-5-fluoro-1,2,3,4-tetrahydro-isoquinolin-6-yl}propanoic acid] | 48 nM
4 | O=C(O)CCc1ccc2c(c1F)CCN(c1cc(OC3CCC3)cc(F)c1F)C2 [Example 64, 3-{2-[5-(cyclobutyloxy)-2,3-difluorophenyl]-5-fluoro-1,2,3,4-tetra-hydroisoquinolin-6-yl}propanoic acid] | 15 nM
5 | Cc1cnc(Oc2cc(C(F)F)c(F)c(N3CCc4cc(CCC(=O)O)ccc4C3)c2)s1 [Example 14, 3-(2-{3-(difluoromethyl)-2-fluoro-5-[(5-methyl-1,3-thiazol-2-yl)oxy]phenyl}-1,2,3,4-tetrahydro-isoquinolin-6-yl)propanoic acid] | 20 nM
6 | Cc1nc(OC2CCC2)cc(N2CCc3c(ccc(CCC(=O)O)c3F)C2)c1C#N [Example 149, 3-(2-(3-cyano-6-cyclobutoxy-2-methylpyridin-4-yl)-5-fluoro-1,2,3,4-tetrahydroisoquinolin-6-yl)propanoic acid] | 33 nM
7 | O=C(O)CCc1ccc2c(c1)CCN(c1cc(OC3CCC3)ccc1F)C2 [Example 19, 3-{2-[5-(cyclobutyloxy)-2-fluorophenyl]-1,2,3,4-tetrahydroiso-quinolin-6-yl}propanoic acid] | 27 nM
8 | Cc1cc2c(c(F)c1CCC(=O)O)CCN(c1cc(OC(F)(F)F)ccc1F)C2 [Example 58, 3-(5-fluoro-2-(2-fluoro-5-(trifluoromethoxy)phenyl)-7-methyl-1,2,3,4-tetra-hydroisoquinolin-6-yl)propanoic acid] | 472 nM
9 | O=C(O)CCc1cc(F)c2c(c1)CCN(c1cc(OC(F)(F)F)ccc1F)C2 [Example 51, 3-{8-fluoro-2-[2-fluoro-5-(trifluoromethoxy)phenyl]-1,2,3,4-tetrahydroisoquinolin-6-yl}-propanoic acid] | 317 nM
10 | COc1cc(Oc2ncc(C)s2)cc(N2CCc3cc(CCC(=O)O)ccc3C2)c1F [Example 17, 3-(2-{2-fluoro-3-methoxy-5-[(5-methyl-1,3-thiazol-2-yl)oxy]phenyl}-1,2,3,4-tetrahydroiso-quinolin-6-yl)propanoic acid] | 23 nM
11 | O=C(O)CCc1ccc2c(c1)CCN(c1cc(OC(F)(F)F)cc(Cl)c1F)C2 [Example 15, 3-{2-[3-chloro-2-fluoro-5-(trifluoromethoxy)phenyl]-1,2,3,4-tetrahydroisoquinolin-6-yl}-propanoic acid] | 22 nM
12 | O=C(O)CCc1ccc2c(c1F)CCN(c1cc(OC(F)(F)F)ccc1F)C2 [Example 80, 3-{5-fluoro-2-[2-fluoro-5-(trifluoromethoxy)phenyl]-1,2,3,4-tetrahydro-isoquinolin-6-yl}propanoic acid] | 3120 nM
13 | O=C(O)CCc1ccc2c(c1)CCN(c1cccc(SC3CCC3)n1)C2 [Example 38, 3-{2-[6-(cyclobutylsulfanyl)pyridin-2-yl]-1,2,3,4-tetrahydroiso-quinolin-6-yl}propanoic acid] | 405 nM
14 | O=C(O)CCc1ccc2c(c1F)CCN(c1cc(CC3CCC3)ccc1F)C2 [Example 23, 3-{2-[5-(cyclobutylmethyl)-2-fluorophenyl]-5-fluoro-1,2,3,4-tetrahydroisoquinolin-6-yl}propanoic acid] | 60 nM

Second part, the compound after the results:

Row | EC50 | Compound
15 | 22 nM | N#Cc1cc(OC(F)(F)F)cc(N2CCc3c(ccc([C@@H]4C[C@H]4C(=O)O)c3F)C2)c1F [Example 109, (1R,2R)-2-{2-[3-cyano-2-fluoro-5-(trifluoromethoxy)phenyl]-5-fluoro-1,2,3,4-tetrahydroisoquinolin-6-yl}cyclopropane-carboxylic acid]
16 | 273 nM | C[C@H]1C[C@H](Oc2cc(F)c(F)c(N3CCc4cc([C@@H]5C[C@H]5C(=O)O)ccc4C3)c2)C1 [Example 101, (1R,2R)-2-(2-{2,3-difluoro-5-[(trans-3-methylcyclobutyl)oxy]phenyl}-1,2,3,4-tetrahydroiso-quinolin-6-yl)-cyclopropane-carboxylic acid]
17 | 312 nM | Cc1ccc(-n2nc(C)c(C#N)c2N2CCc3cc(C(C)CCCC(=O)O)ccc3C2)cc1 (single isomer, unassigned) [Example 142, 5-{2-[4-cyano-3-methyl-1-(4-methylphenyl)-1H-pyrazol-5-yl]-1,2,3,4-tetra-hydroisoquinolin-6-yl}hexanoic acid]
18 | 62 nM | O=C(O)CCc1ccc2c(c1)CCN(c1cc(OC(F)(F)F)cc(Cl)c1Cl)C2 [Example 156, 3-{2-[2,3-dichloro-5-(trifluoro-methoxy)phenyl]-1,2,3,4-tetra-hydroisoquinolin-6-yl}propanoic acid]
19 | 215 nM | O=C(O)[C@H]1C[C@@H]1c1ccc2c(c1F)CCN(c1cc(OC(F)(F)F)ccc1F)C2 [Example 118, (1S,2S)-2-{5-fluoro-2-[2-fluoro-5-(trifluoromethoxy)phenyl]-1,2,3,4-tetrahydroisoquinolin-6-yl} cyclopropane-carboxylic acid]
20 | 251 nM | CO[C@H]1C[C@H](Oc2cc(F)c(F)c(N3CCc4cc([C@H]5C[C@@H]5C(=O)O)ccc4C3)c2)C1 [Example 100, (1S,2S)-2-(2-{2,3-difluoro-5-[(trans-3-methoxycyclobutyl)oxy]phenyl}-1,2,3,4-tetrahydroiso-quinolin-6-yl)-cyclopropanecarboxylic acid]
21 | 4040 nM | O=C(O)C1CC1c1ccc2c(c1)CCN(c1cc(OC(F)(F)F)cc(Cl)c1F)C2 (stereo not shown) [Example 104, 2-{2-[3-chloro-2-fluoro-5-(trifluoro-methoxy)phenyl]-1,2,3,4-tetra-hydroisoquinolin-6-yl}cyclo-propane-carboxylic acid]
22 | 6610 nM | O=C(O)C1CC1c1ccc2c(c1)CCN(c1cc(OC(F)(F)F)cc(Cl)c1F)C2 (stereo not shown) [Example 105, 2-{2-[3-chloro-2-fluoro-5-(trifluoro-methoxy)phenyl]-1,2,3,4-tetra-hydroisoquinolin-6-yl}cyclo-propane-carboxylic acid]
23 | 121 nM | C[C@H]1C[C@H](Oc2cc(F)c(F)c(N3CCc4c(ccc([C@H]5C[C@@H]5C(=O)O)c4F)C3)c2)C1 [Example 122, (1S,2S)-2-(2-{2,3-difluoro-5-[(trans-3-methylcyclobutyl)oxy]phenyl}-5-fluoro-1,2,3,4-tetrahydro-isoquinolin-6-yl)cyclopropane-carboxylic acid]
24 | 1580 nM | COc1cc(O[C@H]2C[C@H](OC)C2)cc(N2CCc3cc([C@H]4C[C@@H]4C(=O)O)ccc3C2)c1C#N [Example 97, (1S,2S)-2-(2-{2-cyano-3-methoxy-5-[(trans-3-methoxycyclobutyl)oxy]phenyl}-1,2,3,4-tetrahydroisoquinolin-6-yl) cyclopropanecarboxylic acid]
25 | 69 nM | Cc1nc(OC2CCC2)nc(N2CCc3c(ccc(CCC(=O)O)c3F)C2)c1C#N [Example 152, 3-{2-[5-cyano-2-(cyclobutyloxy)-6-methylpyrimidin-4-yl]-5-fluoro-1,2,3,4-tetrahydroisoquino-lin-6-yl}propanoic acid]
